29 molecules from patent US20090018134A1, “Compounds - 945” (AstraZeneca AB, priority 2007, published 2009) can be followed below.

This test concerns the target T1, mTOR (Homo sapiens, UniProt P42345).
T1 construct: FLAG; made in house
In words: In Vitro mTOR Kinase Assay (Echo), Test (a)(ii). The test is classed as biochemical. Conditions: table of enzyme assay Test (a)(ii); read-out: Test (a)(ii) IC50. In short, it runs like this: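 Inhibition of truncated mTOR (1362-2549, FLAG-tagged, purified from stably transfected HEK293 cells) is measured as reduced AlphaScreen signal from a phospho-T389-recognising antibody bound to the biotinylated peptide product. Kinase incubation lasts 2 hours at room temperature. Potency is given as IC50.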

T1 sequence (P42345 1362-2549): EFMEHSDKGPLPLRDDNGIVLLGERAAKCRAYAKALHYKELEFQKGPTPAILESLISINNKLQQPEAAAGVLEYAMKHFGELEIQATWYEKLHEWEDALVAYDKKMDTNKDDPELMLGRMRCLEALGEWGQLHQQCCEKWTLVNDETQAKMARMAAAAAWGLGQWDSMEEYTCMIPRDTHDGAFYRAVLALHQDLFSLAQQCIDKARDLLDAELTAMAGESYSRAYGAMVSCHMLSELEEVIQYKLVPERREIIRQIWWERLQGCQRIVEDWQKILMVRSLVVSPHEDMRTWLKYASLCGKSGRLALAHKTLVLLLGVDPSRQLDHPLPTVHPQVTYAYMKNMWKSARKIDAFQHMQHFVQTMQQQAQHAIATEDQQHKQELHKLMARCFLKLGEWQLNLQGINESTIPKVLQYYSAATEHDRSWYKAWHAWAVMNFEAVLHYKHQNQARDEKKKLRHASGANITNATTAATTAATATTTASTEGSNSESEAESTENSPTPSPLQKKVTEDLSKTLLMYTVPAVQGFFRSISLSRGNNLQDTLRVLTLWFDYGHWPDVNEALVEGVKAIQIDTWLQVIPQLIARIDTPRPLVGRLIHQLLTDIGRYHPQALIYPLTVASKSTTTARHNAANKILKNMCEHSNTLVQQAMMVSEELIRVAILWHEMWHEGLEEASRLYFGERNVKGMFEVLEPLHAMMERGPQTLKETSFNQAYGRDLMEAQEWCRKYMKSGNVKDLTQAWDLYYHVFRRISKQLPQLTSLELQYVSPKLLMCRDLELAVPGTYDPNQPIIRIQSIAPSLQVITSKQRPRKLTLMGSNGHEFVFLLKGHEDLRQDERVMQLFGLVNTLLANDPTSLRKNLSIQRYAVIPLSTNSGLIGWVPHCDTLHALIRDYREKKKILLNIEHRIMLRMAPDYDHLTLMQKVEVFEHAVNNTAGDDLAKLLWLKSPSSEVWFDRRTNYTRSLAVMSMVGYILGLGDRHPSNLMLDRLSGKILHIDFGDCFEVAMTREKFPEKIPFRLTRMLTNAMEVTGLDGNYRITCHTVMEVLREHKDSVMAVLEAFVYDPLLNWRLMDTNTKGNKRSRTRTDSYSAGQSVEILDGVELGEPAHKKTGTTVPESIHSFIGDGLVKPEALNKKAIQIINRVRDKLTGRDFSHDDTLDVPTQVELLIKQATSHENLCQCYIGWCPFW

For the molecule `C[C@H]1COCCN1c1cc(C2(S(=O)(=O)CCCO)CC2)nc(-c2ccc(NC(=O)Nc3cnn(C)c3)cc2)n1` [Example 31j, 1-[4-[4-[1-(3-hydroxypropylsulfonyl)cyclopropyl]-6-[(3S)-3-methylmorpholin-4-yl]pyrimidin-2-yl]phenyl]-3-(1-methylpyrazol-4-yl)urea], the IC50 (as a rule, the point on the concentration scale where inhibition reaches its midpoint) was determined as 1.03 nM.

Consider `CCCNC(=O)Nc1ccc(-c2nc(N3CCOC[C@@H]3C)cc(C3(S(=O)(=O)CCCO)CC3)n2)cc1` [Example 31k, 3-[4-[4-[1-(3-hydroxypropylsulfonyl)cyclopropyl]-6-[(3S)-3-methylmorpholin-4-yl]pyrimidin-2-yl]phenyl]-1-propylurea], for which the IC50 was 1.91 nM. Then `C[C@H]1COCCN1c1cc(C2(S(=O)(=O)CCCO)CC2)nc(-c2ccc(NC(=O)NCCN(C)C)cc2)n1` [Example 31l, 3-(2-dimethylaminoethyl)-1-[4-[4-[1-(3-hydroxypropylsulfonyl)cyclopropyl]-6-[(3S)-3-methylmorpholin-4-yl]pyrimidin-2-yl]phenyl]urea], with 214 nM; and `C[C@H]1COCCN1c1cc(C2(S(=O)(=O)CCCO)CC2)nc(-c2ccc(NC(=O)NC(C)(C)CO)cc2)n1` [Example 31m, 3-(1-hydroxy-2-methylpropan-2-yl)-1-[4-[4-[1-(3-hydroxypropylsulfonyl)cyclopropyl]-6-[(3S)-3-methylmorpholin-4-yl]pyrimidin-2-yl]phenyl]urea], with 5.91 nM. The figure for `CNC(=O)Nc1ccc(-c2nc(N3CCOCC3)cc(C3(C(=O)N(C)C)CC3)n2)cc1` [Example 32, N,N-Dimethyl-1-[2-[4-(methylcarbamoylamino)phenyl]-6-morpholin-4-ylpyrimidin-4-yl]cyclopropane-1-carboxamide] is 3.15 nM. The figure for `CNC(=O)Nc1ccc(-c2nc(N3CCOCC3)cc(C3(C(=O)N4CCOC[C@@H]4C)CC3)n2)cc1` [Example 32a, 3-methyl-1-[4-[4-[1-[(3S)-3-methylmorpholine-4-carbonyl]cyclopropyl]-6-morpholin-4-ylpyrimidin-2-yl]phenyl]urea] is 42.5 nM; for `CNC(=O)Nc1ccc(-c2nc(N3CCOCC3)cc(C3(C(=O)NC4CC4)CC3)n2)cc1` [Example 32b, N-cyclopropyl-1-[2-[4-(methylcarbamoylamino)phenyl]-6-morpholin-4-ylpyrimidin-4-yl]cyclopropane-1-carboxamide] it is 8.29 nM.

For the molecule `CNC(=O)Nc1ccc(-c2nc(N3CCOCC3)cc(C3(C(=O)N(C)C4CC4)CC3)n2)cc1` [Example 32c, N-cyclopropyl-N-methyl-1-[2-[4-(methylcarbamoylamino)phenyl]-6-morpholin-4-ylpyrimidin-4-yl]cyclopropane-1-carboxamide], the IC50 was found to be 2.88 nM.

Consider `CNC(=O)Nc1ccc(-c2nc(N3CCOCC3)cc(C3(C(=O)N4CCN(C)CC4)CC3)n2)cc1` [Example 32d, 3-methyl-1-[4-[4-[1-(4-methylpiperazine-1-carbonyl)cyclopropyl]-6-morpholin-4-ylpyrimidin-2-yl]phenyl]urea], for which the IC50 was determined as 13.1 nM.

Turning to `CN(C)C(=O)C1(c2cc(N3CCOCC3)nc(-c3ccc(NC(=O)NC4CC4)cc3)n2)CC1` [Example 33, 1-[2-[4-(Cyclopropylcarbamoylamino)phenyl]-6-morpholin-4-ylpyrimidin-4-yl]-N,N-dimethylcyclopropane-1-carboxamide], the IC50 was 9.29 nM. Then `C[C@H]1COCCN1C(=O)C1(c2cc(N3CCOCC3)nc(-c3ccc(NC(=O)NC4CC4)cc3)n2)CC1` [Example 33a, 3-cyclopropyl-1-[4-[4-[1-[(3S)-3-methylmorpholine-4-carbonyl]cyclopropyl]-6-morpholin-4-ylpyrimidin-2-yl]phenyl]urea], with 58.4 nM; and `O=C(Nc1ccc(-c2nc(N3CCOCC3)cc(C3(C(=O)NC4CC4)CC3)n2)cc1)NC1CC1` [Example 33b, N-cyclopropyl-1-[2-[4-(cyclopropylcarbamoylamino)phe-nyl]-6-morpholin-4-ylpyrimidin-4-yl]cyclopropane-1-carboxamide], with 12 nM; and `CN(C(=O)C1(c2cc(N3CCOCC3)nc(-c3ccc(NC(=O)NC4CC4)cc3)n2)CC1)C1CC1` [Example 33c, N-cyclopropyl-1-[2-[4-(cyclopropylcarbamoylamino)phe-nyl]-6-morpholin-4-ylpyrimidin-4-yl]-N-methylcyclopropane-1-carboxamide], with 2.58 nM. The figure for `CN1CCN(C(=O)C2(c3cc(N4CCOCC4)nc(-c4ccc(NC(=O)NC5CC5)cc4)n3)CC2)CC1` [Example 33d, 3-cyclopropyl-1-[4-[4-[1-(4-methylpiperazine-1-carbonyl)cyclopropyl]-6-morpholin-4-ylpyrimidin-2-yl]phenyl]urea] is 133 nM; for `CN(C)C(=O)C1(c2cc(N3CCOCC3)nc(-c3ccc(NC(=O)NCCO)cc3)n2)CC1` [Example 34, 1-[2-[4-(2-Hydroxyethylcarbamoylamino)phenyl]-6-morpholin-4-ylpyrimidin-4-yl]-N,N-dimethylcyclopropane-1-carboxamide] it is 4.05 nM. The figure for `C[C@H]1COCCN1C(=O)C1(c2cc(N3CCOCC3)nc(-c3ccc(NC(=O)NCCO)cc3)n2)CC1` [Example 34a, 3-(2-hydroxyethyl)-1-[4-[4-[1-[(3S)-3-methylmorpholine-4-carbonyl]cyclopropyl]-6-morpholin-4-ylpyrimidin-2-yl]phenyl]urea] is 38.7 nM; for `O=C(NCCO)Nc1ccc(-c2nc(N3CCOCC3)cc(C3(C(=O)NC4CC4)CC3)n2)cc1` [Example 34b, N-cyclopropyl-1-[2-[4-(2-hydroxyethylcarbamoylamino)phe-nyl]-6-morpholin-4-ylpyrimidin-4-yl]cyclopropane-1-carboxamide] it is 10.9 nM; for `CN(C(=O)C1(c2cc(N3CCOCC3)nc(-c3ccc(NC(=O)NCCO)cc3)n2)CC1)C1CC1` [Example 34c, N-cyclopropyl-1-[2-[4-(2-hydroxyethylcarbamoylamino)phe-nyl]-6-morpholin-4-ylpyrimidin-4-yl]-N-methylcyclopropane-1-carboxamide] it is 3.45 nM.

Regarding `CN1CCN(C(=O)C2(c3cc(N4CCOCC4)nc(-c4ccc(NC(=O)NCCO)cc4)n3)CC2)CC1` [Example 34d, 3-(2-hydroxyethyl)-1-[4-[4-[1-(4-methylpiperazine-1-carbonyl)cyclopropyl]-6-morpholin-4-ylpyrimidin-2-yl]phenyl]urea], the IC50 is 86.3 nM.

Turning to `CNC(=S)Nc1ccc(-c2nc(N3CCOC[C@@H]3C)cc(C3(S(C)(=O)=O)CC3)n2)cc1` [Example 35, 3-Methyl-1-[4-[4-[(3S)-3-methylmorpholin-4-yl]-6-(1-methylsulfonylcyclopropyl)pyrimidin-2-yl]phenyl]thiourea], the IC50 stood at 5.31 nM. The figure for `CCNC(=S)Nc1ccc(-c2nc(N3CCOC[C@@H]3C)cc(C3(S(C)(=O)=O)CC3)n2)cc1` [Example 35a, 3-ethyl-1-[4-[4-[(3S)-3-methylmorpholin-4-yl]-6-(1-methylsulfonylcyclopropyl)pyrimidin-2-yl]phenyl]thiourea] is 5.52 nM. As for `C[C@H]1COCCN1c1cc(C2(S(C)(=O)=O)CC2)nc(-c2ccc(NC(=S)NCCO)cc2)n1` [Example 35b, 3-(2-hydroxyethyl)-1-[4-[4-[(3S)-3-methylmorpholin-4-yl]-6-(1-methylsulfonylcyclopropyl)pyrimidin-2-yl]phenyl]thiourea], the half-inhibitory concentration (IC50) is 0.577 nM. The figure for `C[C@H]1COCCN1c1cc(C2(S(C)(=O)=O)CC2)nc(-c2ccc(NC(=S)NCCN(C)C)cc2)n1` [Example 35c, 3-(2-dimethylaminoethyl)-1-[4-[4-[(3S)-3-methylmorpholin-4-yl]-6-(1-methylsulfonylcyclopropyl)pyrimidin-2-yl]phenyl]thiourea] is 108 nM; for `C[C@H]1COCCN1c1cc(C2(S(C)(=O)=O)CC2)nc(-c2ccc(NC(=S)NC3CC3)cc2)n1` [Example 35d, 3-cyclopropyl-1-[4-[4-[(3S)-3-methylmorpholin-4-yl]-6-(1-methylsulfonylcyclopropyl)pyrimidin-2-yl]phenyl]thiourea] it is 4.11 nM. On to `C[C@H]1COCCN1c1cc(C2(S(=O)(=O)CCCO)CC2)nc(-c2ccc(NC(=O)NC3(CO)CC3)cc2)n1` [Example 36a, 3-[1-(hydroxymethyl)cyclopro-pyl]-1-[4-[4-[1-(3-hydroxypropylsulfonyl)cyclopropyl]-6-[(3S)-3-methylmorpholin-4-yl]pyrimidin-2-yl]phenyl]urea], for which the IC50 amounted to 142 nM. Then `C[C@H]1COCCN1c1cc(C2(S(=O)(=O)c3ccc(F)cc3)CC2)nc(-c2ccc(NC(=O)NCc3ncc[nH]3)cc2)n1` [Example 36aa, 1-[4-[4-[1-(4-fluorophenyl)sulfonylcyclopropyl]-6-[(3S)-3-methylmorpholin-4-yl]pyrimidin-2-yl]phenyl]-3-(1H-imidazol-2-ylmethyl)urea], with 74.9 nM; and `C[C@H]1COCCN1c1cc(C2(S(=O)(=O)c3ccccn3)CCCC2)nc(-c2ccc(NC(=O)NC3CC3)cc2)n1` [Example 36ab, 3-cyclopropyl-1-[4-[4-[(3S)-3-methylmorpholin-4-yl]-6-(1-pyridin-2-ylsulfonylcyclopentyl)pyrimidin-2-yl]phenyl]urea], with 11 nM. For the molecule `C[C@H]1COCCN1c1cc(C2(S(=O)(=O)c3ccccn3)CCCC2)nc(-c2ccc(NC(=O)NCCO)cc2)n1` [Example 36ac, 3-(2-hydroxyethyl)-1-[4-[4-[(3S)-3-methylmorpholin-4-yl]-6-(1-pyridin-2-ylsulfonylcyclopentyl)pyrimidin-2-yl]phenyl]urea], the IC50 amounted to 4.41 nM. Then `C[C@H]1COCCN1c1cc(C2(S(=O)(=O)c3ccccn3)CCCC2)nc(-c2ccc(NC(=O)NCCC#N)cc2)n1` [Example 36ad, 3-(2-cyanoethyl)-1-[4-[4-[(3S)-3-methylmorpholin-4-yl]-6-(1-pyridin-2-ylsulfonylcyclopentyl)pyrimidin-2-yl]phenyl]urea], with 32.3 nM.
